Measurements published in patent EP4043466B1, “PRC2 INHIBITORS” (Mirati Therapeutics, Inc., priority 2018, dated 2019).

Target: purified human, His-tagged PRC2 complex (Homo sapiens, UniProt O75530+Q15910)
Assay: Hot Spot HMT assay: inhibition of PRC2 enzymatic activity (transfer of tritiated methyl from SAM to core histone, filter binding)
Assay type: biochemical
Settings: not given
From the text: The assay uses purified human, His-tagged PRC2 complex, including N-terminal His-tagged EZH2 enzyme, N-terminal Flag-tagged embryonic ectoderm development protein (EED), N-terminal His-tagged suppressor of zeste 12 (SUZ12), N-terminal His-tagged AEBP2, and N-terminal His-tagged RbAp48. In this assay, the transfer of the tritiated methyl group from radiolabeled S-adenosyl methionine (SAM) to purified core histone protein by EZH2 is quantitated after filtration to determine the activity of the core PRC2 complex in the presence and absence of compound.
The initial starting concentration for the serial dilutions of each compound was 1.0 µM. […] SAH (S-(5-adenosyl)-L-homocysteine) was used as a positive control for assay validation.
An aliquot of each serial dilution of test compound was added to deep 384 well plate using Acoustic Technology instrument (Echo 550, LabCyte) containing reaction buffer (50 mM Tris-HCl (pH 8.)), 0.01% Brij35, 1 mM EDTA, 1 mM DTT, 1 mM PMSF and 1% DMSO), 10 nM purified PRC2 complex and 0.05 mg/ml core histone H3 in a 5 µl volume. The reaction was mixed gently and then pre-incubated for 20 min at 30°C. The enzymatic reaction was initiated by adding 1 uM S-Adenosyl-L-[methyl - ^3H]methionine and incubated for 1 hr at 30°C. After 1 hr, the reaction product was detected using a filter binding method and the amount of tritiated H3 core histone was quantitated using a scintillation counter.

Sequence of purified human, His-tagged PRC2 complex (Q15910 whole entry): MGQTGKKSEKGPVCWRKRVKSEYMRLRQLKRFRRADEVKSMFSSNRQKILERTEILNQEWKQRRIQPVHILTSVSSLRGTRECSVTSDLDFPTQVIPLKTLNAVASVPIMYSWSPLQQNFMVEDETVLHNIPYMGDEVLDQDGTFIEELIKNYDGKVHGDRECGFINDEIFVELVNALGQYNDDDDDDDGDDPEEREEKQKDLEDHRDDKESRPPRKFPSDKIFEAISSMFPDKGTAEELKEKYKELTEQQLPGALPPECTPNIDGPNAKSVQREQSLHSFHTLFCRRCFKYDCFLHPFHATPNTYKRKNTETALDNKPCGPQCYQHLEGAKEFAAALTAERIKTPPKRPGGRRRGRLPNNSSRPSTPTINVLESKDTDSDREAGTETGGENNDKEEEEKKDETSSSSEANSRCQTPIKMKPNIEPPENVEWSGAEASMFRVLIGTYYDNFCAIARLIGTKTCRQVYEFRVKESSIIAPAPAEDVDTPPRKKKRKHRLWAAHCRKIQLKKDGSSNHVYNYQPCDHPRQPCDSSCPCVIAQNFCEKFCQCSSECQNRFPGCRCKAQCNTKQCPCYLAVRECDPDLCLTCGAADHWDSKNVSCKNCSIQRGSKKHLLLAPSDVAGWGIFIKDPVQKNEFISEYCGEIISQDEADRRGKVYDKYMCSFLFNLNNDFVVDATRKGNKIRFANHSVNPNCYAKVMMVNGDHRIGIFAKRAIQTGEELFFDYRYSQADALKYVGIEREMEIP
Sequence of purified human, His-tagged PRC2 complex (O75530 whole entry): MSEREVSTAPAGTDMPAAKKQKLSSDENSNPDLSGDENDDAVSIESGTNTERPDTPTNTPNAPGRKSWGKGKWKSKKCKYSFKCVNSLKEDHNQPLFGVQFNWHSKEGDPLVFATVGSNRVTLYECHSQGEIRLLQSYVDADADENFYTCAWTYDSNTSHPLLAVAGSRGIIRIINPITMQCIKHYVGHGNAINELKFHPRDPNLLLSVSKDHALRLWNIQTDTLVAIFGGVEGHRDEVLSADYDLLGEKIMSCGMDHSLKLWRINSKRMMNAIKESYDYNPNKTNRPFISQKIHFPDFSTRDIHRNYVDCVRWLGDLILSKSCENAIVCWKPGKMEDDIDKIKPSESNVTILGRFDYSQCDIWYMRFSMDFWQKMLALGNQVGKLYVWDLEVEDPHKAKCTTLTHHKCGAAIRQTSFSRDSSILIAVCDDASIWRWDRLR
Sequence of purified human, His-tagged PRC2 complex (Q15022 whole entry partner): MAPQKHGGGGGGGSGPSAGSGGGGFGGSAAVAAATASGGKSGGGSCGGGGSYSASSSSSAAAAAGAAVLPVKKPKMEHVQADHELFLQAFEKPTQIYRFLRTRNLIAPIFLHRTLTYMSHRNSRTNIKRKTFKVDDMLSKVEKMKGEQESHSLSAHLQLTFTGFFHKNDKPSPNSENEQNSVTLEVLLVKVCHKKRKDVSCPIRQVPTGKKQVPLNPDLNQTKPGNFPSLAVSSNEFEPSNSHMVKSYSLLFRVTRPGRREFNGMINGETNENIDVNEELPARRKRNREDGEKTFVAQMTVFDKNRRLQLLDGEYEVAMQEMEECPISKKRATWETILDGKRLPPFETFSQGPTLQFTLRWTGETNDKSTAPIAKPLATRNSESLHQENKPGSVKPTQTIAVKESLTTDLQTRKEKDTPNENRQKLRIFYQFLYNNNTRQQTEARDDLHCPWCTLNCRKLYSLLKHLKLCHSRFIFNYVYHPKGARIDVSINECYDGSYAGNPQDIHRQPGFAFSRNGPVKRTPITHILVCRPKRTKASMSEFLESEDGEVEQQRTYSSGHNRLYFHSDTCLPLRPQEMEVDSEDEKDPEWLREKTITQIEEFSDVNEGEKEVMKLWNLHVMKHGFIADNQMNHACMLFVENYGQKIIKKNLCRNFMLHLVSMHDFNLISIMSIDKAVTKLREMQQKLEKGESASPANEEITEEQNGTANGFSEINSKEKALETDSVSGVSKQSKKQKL
Sequence of purified human, His-tagged PRC2 complex (Q6ZN18 whole entry partner): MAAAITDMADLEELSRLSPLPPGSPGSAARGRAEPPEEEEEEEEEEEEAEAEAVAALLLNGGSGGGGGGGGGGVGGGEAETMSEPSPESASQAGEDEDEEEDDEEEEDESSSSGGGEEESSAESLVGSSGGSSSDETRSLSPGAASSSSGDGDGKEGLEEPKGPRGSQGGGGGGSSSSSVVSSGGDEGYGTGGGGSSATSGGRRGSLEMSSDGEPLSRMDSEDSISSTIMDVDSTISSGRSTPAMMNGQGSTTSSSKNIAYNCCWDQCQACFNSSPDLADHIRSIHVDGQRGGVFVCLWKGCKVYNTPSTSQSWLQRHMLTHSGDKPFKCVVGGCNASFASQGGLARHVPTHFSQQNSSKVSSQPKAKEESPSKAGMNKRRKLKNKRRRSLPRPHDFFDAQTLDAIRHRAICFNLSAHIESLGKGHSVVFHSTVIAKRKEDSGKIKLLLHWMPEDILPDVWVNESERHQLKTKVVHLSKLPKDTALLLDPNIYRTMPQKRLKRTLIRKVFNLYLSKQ
Sequence of purified human, His-tagged PRC2 complex (Q09028 whole entry partner): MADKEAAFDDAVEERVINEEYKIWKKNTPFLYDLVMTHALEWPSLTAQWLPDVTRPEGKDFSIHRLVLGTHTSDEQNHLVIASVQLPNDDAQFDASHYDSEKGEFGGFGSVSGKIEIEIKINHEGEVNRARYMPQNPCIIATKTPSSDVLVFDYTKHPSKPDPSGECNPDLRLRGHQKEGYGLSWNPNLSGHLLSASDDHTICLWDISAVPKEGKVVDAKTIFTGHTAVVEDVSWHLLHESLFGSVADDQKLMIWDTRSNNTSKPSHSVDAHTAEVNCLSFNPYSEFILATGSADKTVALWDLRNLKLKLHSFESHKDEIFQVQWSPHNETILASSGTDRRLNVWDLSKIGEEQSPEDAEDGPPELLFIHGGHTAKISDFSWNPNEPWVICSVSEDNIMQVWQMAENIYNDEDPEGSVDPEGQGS

In the case of `CNCc1cc(-c2cnc(NCc3c(F)ccc4c3CCO4)n3cc(C#N)nc23)n(C)n1` [Example 211, 5-(((5-fluoro-2,3-dihydrobenzofuran-4-yl)methyl)amino)-8-(1-methyl-3-((methylamino)methyl)-1H-pyrazol-5-yl)imidazo[1,2-c]pyrimidine-2-carbonitrile], the IC50 is reported as under 100 nM.

Same assay, conditions: Inhibition of PRC2-mediated enzymatic activity; 10 nM PRC2 complex, 0.05 mg/ml core histone H3, 1 uM 3H-SAM, 1 hr at 30°C

Compared with `COc1ccc(-c2cnc(NCc3c(F)ccc4c3CCO4)n3cc(C#N)nc23)cn1` [Example 94, 5-(((5-fluoro-2,3-dihydrobenzofuran-4-yl)methyl)amino)-8-(6-methoxypyridin-3-yl)imidazo[1,2-c]pyrimidine-2-carbonitrile], `N#Cc1cn2c(NCc3c(F)ccc4c3CCO4)ncc(-c3cnn(Cc4cccnc4)c3)c2n1` [Example 101, 5-(((5-fluoro-2,3-dihydrobenzofuran-4-yl)methyl)amino)-8-(1-(pyridin-3-ylmethyl)-1H-pyrazol-4-yl)imidazo[1,2-c]pyrimidine-2-carbonitrile] is higher in IC50: under 100 nM for the first, 100 to 500 nM for the second. The first is the more potent here.

First: N#Cc1cn2c(NCc3c(F)ccc4c3CCO4)ncc(-c3cnc(N)c(C(F)(F)F)c3)c2n1 [Example 134, 8-(6-amino-5-(trifluoromethyl)pyridin-3-yl)-5-(((5-fluoro-2,3-dihydrobenzofuran-4-yl)methyl)amino)imidazo[1,2-c]pyrimidine-2-carbonitrile]
Second: Cc1cc(-c2cnc(NCc3cccc4c3OCO4)n3cc(C#N)nc23)n(C)n1 [Example 27, 5-((benzo[d][1,3]dioxol-4-ylmethyl)amino)-8-(1,3-dimethyl-1H-pyrazol-5-yl)imidazo[1,2-c]pyrimidine-2-carbonitrile]
The IC50 of the first is lower: 100 to 500 nM for the first, over 500 nM for the second. The first is the more potent here.

Compared with `N#Cc1cn2c(NCc3c(F)ccc4c3CCO4)ncc(-c3cnn(C4CCOCC4)c3)c2n1` [Example 120, 5-(((5-fluoro-2,3-dihydrobenzofuran-4-yl)methyl)amino)-8-(1-(tetrahydro-2H-pyran-4-yl)-1H-pyrazol-4-yl)imidazo[1,2-c]pyrimidine-2-carbonitrile], `N#Cc1cn2c(NCc3c(F)ccc4c3CCO4)ncc(-c3ccc(C4COCCN4)cc3)c2n1` (stereo not shown) [Example 225, 5-(((5-fluoro-2,3-dihydrobenzofuran-4-yl)methyl)amino)-8-(4-(morpholin-3-yl)phenyl)imidazo[1,2-c]pyrimidine-2-carbonitrile] is lower in IC50: over 500 nM for the first, under 100 nM for the second. The second is the more potent here.

Compared with `COc1cc(-c2cnc(NCc3c(F)ccc4c3CCO4)n3cc(C#N)nc23)c(OC)cn1` [Example 125, 8-(2,5-dimethoxypyridin-4-yl)-5-(((5-fluoro-2,3-dihydrobenzofuran-4-yl)methyl)amino)imidazo[1,2-c]pyrimidine-2-carbonitrile], `Cc1ncccc1-c1cnc(NCc2c(F)ccc3occc23)n2cc(C#N)nc12` [Example 22, 5-(((5-fluorobenzofuran-4-yl)methyl)amino)-8-(2-methylpyridin-3-yl)imidazo[1,2-c]pyrimidine-2-carbonitrile] is higher in IC50: under 100 nM for the first, 100 to 500 nM for the second. The first is the more potent here.

Compared with `Cc1c(-c2cnc(NCc3c(F)ccc4c3CCO4)n3cc(C#N)nc23)cnn1C(C)C` [Example 26, 5-(((5-fluoro-2,3-dihydrobenzofuran-4-yl)methyl)amino)-8-(1-isopropyl-5-methyl-1H-pyrazol-4-yl)imidazo[1,2-c]pyrimidine-2-carbonitrile], `Cc1n[nH]cc1-c1cnc(NCc2c(F)ccc3c2CCO3)n2cc(C#N)nc12` [Example 79, 5-(((5-fluoro-2,3-dihydrobenzofuran-4-yl)methyl)amino)-8-(3-methyl-1H-pyrazol-4-yl)imidazo[1,2-c]pyrimidine-2-carbonitrile] is lower in IC50: 100 to 500 nM for the first, under 100 nM for the second. The second is the more potent here.

`CC(=O)Nc1cc(-c2cnc(NCc3c(F)ccc4c3CCO4)n3cc(C#N)nc23)ccn1` [Example 131, N-(4-(2-cyano-5-(((5-fluoro-2,3-dihydrobenzofuran-4-yl)methyl)amino)imidazo[1,2-c]pyrimidin-8-yl)pyridin-2-yl)acetamide] and `N#Cc1cn2c(NCc3c(F)ccc4c3CCO4)ncc(-c3cnccc3Cl)c2n1` [Example 109, 8-(4-chloropyridin-3-yl)-5-(((5-fluoro-2,3-dihydrobenzofuran-4-yl)methyl)amino)imidazo[1,2-c]pyrimidine-2-carbonitrile] cannot be ordered by IC50: under 100 nM for the first, under 100 nM for the second.

`N#Cc1cn2c(NCc3c(F)ccc4c3CCO4)ncc(-c3ccc(C(F)(F)F)nc3)c2n1` [Example 126, 5-(((5-fluoro-2,3-dihydrobenzofuran-4-yl)methyl)amino)-8-(6-(trifluoromethyl)pyridin-3-yl)imidazo[1,2-c]pyrimidine-2-carbonitrile] and `Cc1nc(C2CC2)ncc1-c1cnc(NCc2c(F)ccc3c2CCO3)n2cc(C(N)=O)nc12` [Example 15, 8-(2-cyclopropyl-4-methylpyrimidin-5-yl)-5-(((5-fluoro-2,3-dihydrobenzofuran-4-yl)methyl)amino)imidazo[1,2-c]pyrimidine-2-carboxamide] fall in the same range of IC50: 100 to 500 nM for the first, 100 to 500 nM for the second.

`Cc1cc(-c2cnc(NCc3cccc4c3CCO4)n3cc(C#N)nc23)n(C)n1` [Example 30, 5-(((2,3-dihydrobenzofuran-4-yl)methyl)amino)-8-(1,3-dimethyl-1H-pyrazol-5-yl)imidazo[1,2-c]pyrimidine-2-carbonitrile] and `CN(C)CCn1cc(-c2cnc(NCc3c(F)ccc4c3CCO4)n3cc(C#N)nc23)cn1` [Example 102, 8-(1-(2-(dimethylamino)ethyl)-1H-pyrazol-4-yl)-5-(((5-fluoro-2,3-dihydrobenzofuran-4-yl)methyl)amino)imidazo[1,2-c]pyrimidine-2-carbonitrile] fall in the same range of IC50: 100 to 500 nM for the first, 100 to 500 nM for the second.

Compared with `N#Cc1cn2c(NCc3c(F)ccc4c3CCO4)ncc(-c3ccc(CN4CCC(F)(F)C4)cc3)c2n1` [Example 55, 8-(4-((3,3-difluoropyrrolidin-1-yl)methyl)phenyl)-5-(((5-fluoro-2,3-dihydrobenzofuran-4-yl)methyl)amino)imidazo[1,2-c]pyrimidine-2-carbonitrile], `COc1cc(Cl)c(-c2cnc(NCc3c(F)ccc4c3CCO4)n3cc(C#N)nc23)cn1` [Example 91, 8-(4-chloro-6-methoxypyridin-3-yl)-5-(((5-fluoro-2,3-dihydrobenzofuran-4-yl)methyl)amino)imidazo[1,2-c]pyrimidine-2-carbonitrile] is higher in IC50: under 100 nM for the first, 100 to 500 nM for the second. The first is the more potent here.

First: COc1cc(C)c(-c2cnc(NCc3c(F)ccc4c3CCO4)n3cc(C(=O)O)nc23)cn1 [Example 6, 5-(((5-fluoro-2,3-dihydrobenzofuran-4-yl)methyl)amino)-8-(6-methoxy-4-methylpyridin-3-yl)imidazo[1,2-c]pyrimidine-2-carboxylic acid]
Second: CN(C)C(=O)c1cc(Cl)c(-c2cnc(NCc3c(F)ccc4c3CCO4)n3cc(C#N)nc23)cc1F [Example 35, 5-chloro-4-(2-cyano-5-(((5-fluoro-2,3-dlhydrobenzofuran-4-yl)methyl)amino)imidazo[1,2-c]pyrimidin-8-yl)-2-fluoro-N,N-dimethylbenzamide]
The IC50 of the first is higher: 100 to 500 nM for the first, under 100 nM for the second.

First: Cc1cc(-c2cnc(NCc3cccc4c3CCO4)n3cc(C(=O)O)nc23)n(C)n1 [Example 10, 5-(((2,3-dihydrobenzofuran-4-yl)methyl)amino)-8-(1,3-dimethyl-1H-pyrazol-5-yl)imidazo[1,2-c]pyrimidine-2-carboxylic acid]
Second: Cc1nn(C(C)C)c(C)c1-c1cnc(NCc2c(F)ccc3c2CCO3)n2cc(C#N)nc12 [Example 92, 5-(((5-fluoro-2,3-dihydrobenzofuran-4-yl)methyl)amino)-8-(1-isopropyl-3,5-dlmethyl-1H-pyrazol-4-yl)imidazo[1,2-c]pyrimidine-2-carbonitrile]
The IC50 of the first is lower: under 100 nM for the first, 100 to 500 nM for the second.

First: Cc1cc(-c2cnc(NCc3c(F)ccc4occc34)n3cc(C(N)=O)nc23)n(C)n1 [Example 18, 8-(1,3-dimethyl-1H-pyrazol-5-yl)-5-(((5-fluorobenzofuran-4-yl)methyl)amino)imidazo[1,2-c]pyrimidine-2-carboxamide]
Second: Cc1n[nH]c(C)c1-c1cnc(NCc2c(F)ccc3c2CCO3)n2cc(C#N)nc12 [Example 104, 8-(3,5-dimethyl-1H-pyrazol-4-yl)-5-(((5-fluoro-2,3-dihydrobenzofuran-4-yl)methyl)amino)imidazo[1,2-c]pyrimidine-2-carbonitrile]
The IC50 of the first is lower: under 100 nM for the first, over 500 nM for the second. The first is the more potent here.

Compared with “8-(1,3-dimethyl-1H-pyrazol-5-yl)-5-(((6-fluorochroman-5-yl)methyl)amino)imidazo[1,2-c]pyrimidine-2-carbonitrile [Example 122]”, `Cc1cc(-c2cnc(NCc3c(F)ccc4c3C(O)CO4)n3cc(C#N)nc23)n(C)n1` (stereo not shown) [Example 155, 8-(1,3-dimethyl-1H-pyrazol-5-yl)-5-(((5-fluoro-3-hydroxy-2,3-dihydrobenzofuran-4-yl)methyl)amino)imidazo[1,2-c]pyrimidine-2-carbonitrile] is lower in IC50: over 500 nM for the first, under 100 nM for the second.

Work on `Cc1nn(C(C)C)cc1-c1cnc(NCc2c(F)ccc3c2CCO3)n2cc(C#N)nc12` [Example 23, 5-(((5-fluoro-2,3-dihydrobenzofuran-4-yl)methyl)amino)-8-(1-isopropyl-3-methyl-1H-pyrazol-4-yl)imidazo[1,2-c]pyrimidine-2-carbonitrile] yielded an IC50 of 100 to 500 nM.
